# Test results reported in patent US10633338B2, “Binding Function 3 (BF3) site compounds as therapeutics and methods for their use” (THE UNIVERSITY OF BRITISH COLUMBIA, priority 2014, dated 2020).
# Where two headings read alike, the source gives them in different places.
# Tests used:
# PSA = assay: Prostate Surface Antigen (PSA) assay, PSA excreted into the media; format: cell-based, human; settings: same plates as eGFP assay
# Experimental: The evaluation of PSA excreted into the media was performed in parallel to the eGFP assay using the same plates (see above description). After the cells were incubated for 3 days 150 μl of the media was taken from each well, and added to 150 μl of PBS.
# androgen receptor (AR) = biological target: T1, androgen receptor (AR) (Homo sapiens, UniProt P10275, T878A); assay: eGFP cellular AR transcription assay; format: cell-based
# T1 construct: stably transfected eGFP-expressing LNCaP human prostate cancer cells (LN-ARR2PB-eGFP) containing an androgen responsive probasin-derived promoter; endogenous in cells; host or cells: LNCaP (LN-ARR2PB-eGFP)
# T1 sequence (P10275 1-920 T878A): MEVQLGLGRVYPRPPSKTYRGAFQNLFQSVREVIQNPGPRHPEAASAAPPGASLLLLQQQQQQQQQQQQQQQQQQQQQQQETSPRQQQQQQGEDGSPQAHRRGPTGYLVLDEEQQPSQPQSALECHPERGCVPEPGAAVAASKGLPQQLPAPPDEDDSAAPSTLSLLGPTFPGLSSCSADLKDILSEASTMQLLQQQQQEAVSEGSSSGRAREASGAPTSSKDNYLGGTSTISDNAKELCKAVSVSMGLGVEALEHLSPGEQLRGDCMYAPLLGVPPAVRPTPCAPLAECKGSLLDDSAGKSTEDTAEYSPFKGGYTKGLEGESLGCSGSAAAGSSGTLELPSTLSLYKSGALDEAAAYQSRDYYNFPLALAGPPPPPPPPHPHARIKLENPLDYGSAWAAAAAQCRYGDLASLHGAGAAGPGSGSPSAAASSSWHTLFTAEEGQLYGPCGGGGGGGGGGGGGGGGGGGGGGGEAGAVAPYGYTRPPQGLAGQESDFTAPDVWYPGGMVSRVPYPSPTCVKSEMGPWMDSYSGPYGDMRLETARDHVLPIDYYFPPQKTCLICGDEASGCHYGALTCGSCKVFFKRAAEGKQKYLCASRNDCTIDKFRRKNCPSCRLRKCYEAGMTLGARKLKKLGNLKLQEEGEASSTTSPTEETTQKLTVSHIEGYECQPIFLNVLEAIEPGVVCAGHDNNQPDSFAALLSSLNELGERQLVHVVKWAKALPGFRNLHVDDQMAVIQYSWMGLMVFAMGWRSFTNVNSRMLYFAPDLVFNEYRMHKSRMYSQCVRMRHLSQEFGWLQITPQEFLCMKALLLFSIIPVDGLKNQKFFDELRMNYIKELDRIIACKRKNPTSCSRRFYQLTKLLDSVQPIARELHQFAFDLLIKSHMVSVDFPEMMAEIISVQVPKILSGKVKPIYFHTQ
# Procedure, shortened: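 AR transcriptional activity is read as eGFP expression from a probasin-derived androgen-responsive promoter. Compound titrated 0-100 μM in the presence of 0.1 nM R1881; 35,000 cells/well.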
# [1] = Homo sapiens, 72 h, PSA excreted into media, 3 days incubation, read-out: PSA IC50
# [2] = LN-ARR2PBeGFP LNCaP cells, 0.1 nM R1881, 3 days incubation, read-out: eGFP IC50
# [3] = Homo sapiens, 72 h, media after 3 days, read-out: IC50 (PSA)
# [4] = LN-ARR2PB-eGFP LNCaP cells, 0.1 nM R1881, 3 days, 0-100 μM compound, read-out: IC50 (eGFP)
# [5] = PSA excreted into media, 3 days incubation
# [6] = LN-ARR2PBeGFP LNCaP cells, 0.1 nM R1881, 3 days incubation
IC50 (PSA; [1]),IC50 (androgen receptor (AR); [2]),SMILES,PSA IC50 (PSA; [5]),eGFP IC50 (androgen receptor (AR); [6]),also measured
,,Brc1ccc2[nH]cc(-c3ccc4ccccc4n3)c2c1 [13 683],,,IC50 (PSA; [3]): 1910 nM; IC50 (androgen receptor (AR); [4]): 2600 nM
1140 nM,1130 nM,Oc1cccc2c(C3Nc4ccccc4C34CCCCC4)c[nH]c12 (centres unmarked) [Compound 13552],,,
,73 nM,Cc1cccc2c(-c3cnc4ccccc4n3)c[nH]c12 [Compound 13699],,,"IC50 (PSA; PSA excreted into media, 3 days incubation, read-out: PSA IC50): 73 nM"
544 nM,549 nM,Fc1ccc(Cl)c2[nH]cc(-c3ccc4ccccc4n3)c12 [Compound 13639],,,
,,O=[N+]([O-])c1cccc2nc(-c3c[nH]c4ccccc34)ccc12 [Compound 13689],Inactive,Inactive,
82 nM,100 nM,Fc1ccc2c(-c3ccc4cccnc4c3)c[nH]c2c1 [Compound 13764],,,IC50 (PSA; [3]): 82 nM
3100 nM,2600 nM,COc1ccc2[nH]c(-c3c[nH]c4ccccc34)cc2c1 [Compound 13509],,,
940 nM,500 nM,CC1(C)C(c2c[nH]c3c(O)cccc23)=Nc2ccccc21 [Compound 13541],,,
1760 nM,3540 nM,Cc1c(F)ccc2c(-c3nc4ccccc4cc3O)c[nH]c12 [Compound 13652],,,
,,c1ccc2c(-c3nn[nH]n3)c[nH]c2c1 [Compound 13701],Inactive,Inactive,
,,COc1ccc(Br)cc1-c1c[nH]c2ccccc12 [13 638],,,"IC50 (PSA) (PSA; media after 3 days): IC50 (PSA) = Inactive; IC50 (eGFP) (androgen receptor (AR); LN-ARR2PB-eGFP LNCaP cells, 0.1 nM R1881, 3 days, 0-100 μM compound): IC50 (eGFP) = Inactive"
,,Cc1cc(C)c2[nH]cc(-c3ccc4c(C#N)cccc4n3)c2c1 [Compound 13608],Inactive,Inactive,
,,Cc1c(F)ccc2c(-c3ccc4c(C#N)cccc4n3)c[nH]c12 [Compound 13609],Inactive,Inactive,
,,COc1cccc2c(-c3cc(C)c4ccccc4n3)c[nH]c12 [13 554],,,IC50 (PSA; [3]): 670 nM; IC50 (androgen receptor (AR); [4]): 600 nM
140 nM,210 nM,O=[N+]([O-])c1cccc2c(-c3ccc4ccccc4c3)c[nH]c12 [Compound 13702],,,
,,Fc1ccc(Cl)c2[nH]ccc12 [Compound 13726],Inactive,Inactive,
,,Cc1cccc2nc(-c3c[nH]c4c(C)c(F)ccc34)ccc12 [Compound 13616],Inactive,Inactive,
250 nM,230 nM,CNC(=O)c1cccc2nc(-c3c[nH]c4c(C)cc(F)cc34)ccc12 [Compound 13710],,,
330 nM,490 nM,Cc1cc(F)cc2c(-c3cnc4ccc(F)cc4n3)c[nH]c12 [Compound 13717],,,
,,Fc1cccc2ccc(Cl)nc12 [Compound 13729],Inactive,Inactive,
,,COc1ccc2[nH]cc(C3Nc4ccccc4C3(C)C)c2c1 (centres unmarked) [13 536],,,IC50 (PSA; [3]): 2520 nM; IC50 (androgen receptor (AR); [4]): 2200 nM
,,Cc1cc(F)cc2cc[nH]c12 [Compound 13722],Inactive,Inactive,
220 nM,290 nM,Fc1ccc2nc(-c3c[nH]c4c(F)c(F)c(F)cc34)ccc2c1 [Compound 13749],,,
,,Cc1cc(F)cc2c(-c3cnc4cccc(Cl)c4n3)c[nH]c12 [Compound 13705],Inactive,Inactive,
410 nM,1230 nM,Fc1ccc2[nH]cc(-c3cc4ccccc4[nH]3)c2c1 [Compound 13500],,,

SMILES,IC50 (PSA; [1]),IC50 (androgen receptor (AR); [2]),PSA IC50 (PSA; [5]),eGFP IC50 (androgen receptor (AR); [6]),also measured
CC1(C)c2ccccc2NC1c1c[nH]c2ccc(Cl)cc12 (centres unmarked) [Compound 13522],2190 nM,3400 nM,,,
